Like-named read-outs stand apart in the source and are kept apart here.
Key:
[1] = test system: pregnant Sprague-Dawley rats; conditions: rat, in vivo
Protocol: (§2) Molecule administered: PA (#840857C, Avanti Polar Lipids) was air-dried under a gentle stream of nitrogen gas and resuspended in 1% BSA to make a 10^−2 M stock solution. PA was administered to pregnant rats in vivo at a dose of 4.5 mg/kg/day for alcohol dose of 4.5 g/kg body weight from gestation day 4 through 10 and 6 mg/kg/day for alcohol dose of 6 g/kg body weight from gestation day 11 through 19 or 20.
(§3) Timed pregnant Sprague-Dawley rats (8-12 weeks old), were purchased from Charles River (Wilmington, MA, USA) and arrived on GD 4, where they were housed in a temperature-controlled room (23° C.) with a 12:12 h light-dark cycle. The dams were acclimatized for a day before weighing and handling. The dams were then assigned into experimental groups. Four in vivo treatment groups were utilized: (1) a nutritional pair-fed control group (control), that served as a control for nutrition and for the gavage procedure. To control for the calories derived from alcohol, these pair-fed control rats were administered isocaloric maltose-dextrin (once-daily) via orogastric gavage. […] (3) An in vivo phosphatidic acid (PA) control group (control PA), to control for the in vivo PA supplement. […] (4) A binge alcohol in vivo PA group (alcohol PA), that received alcohol via intragastric gavage similar to those in the binge alcohol group along with the PA supplement. Daily PA doses were calculated based on the dam's weight at the time of administration (PA (μL)=0.2×dam weight (g) GD 5-10; PA (μL)=0.2105×weight (g) GD 11-19). Intake of food in the alcohol treatment group was measured, and an equivalent amount of food was given to the pair-fed control dams to account for additional nutritional factors. Rats were euthanized by decapitation while under isoflurane anesthesia.
(§4) Maternal weights and fetal weights were measured on GD 20-21, one day after the last treatment on GD 19-20, following euthanasia.
(§5) Maternal weight and fetal weight (unit of analysis is a dam or litter) were analyzed using two-way mixed ANOVA with alcohol as the between factor and PA as the within factor. Normality was tested using the Shapiro-Wilk normality test where appropriate. […] The data were considered significant if the p value was <0.05.

[2] = test system: pregnant Sprague-Dawley rats; assay: Maternal and fetal growth assessment in FASD rat model (binge alcohol with or without in vivo PA)
Protocol: as §2, §3, §4, §5

uterine artery = assay: Pressure arteriography of uterine artery (ACh-induced vasodilation) after in vivo treatment; set-up: species or system rat; conditions: ethanol/alcohol group vs control, p<0.05
Protocol: (§1) The dams were then assigned into experimental groups. […] Rats were euthanized by decapitation while under isoflurane anesthesia.
Following euthanasia, the entirety of the uterus was excised and immediately placed in ice-cold HBS for pressure arteriography experiments. Uterine artery functional assessments were performed following uterine artery isolation using established procedures. Briefly, the uterine horn was transferred to a 200 mm petri dish with solidified Sylgard to facilitate tissue isolation and cleaning in ice-cold HBS. A 3-5 mm segment of the primary uterine artery was dissected between arterial bifurcations from the approximate center of the uterine horn. Surrounding adipose and connective tissues were carefully removed from the uterine artery segment. […] Intramural pressure was then increased to mimic in vivo pressures at 90 mm Hg, at which pressure the ACh concentration responses were measured. Vessels were pre-constricted with 10^−6 M Tbx as determined previously. […] The above treatment was followed by the administration of three-fold increasing concentrations of ACh from 10^−10 M up to 10^−5 M. Vascular response was recorded by established methods using Ionwizard software version 6.6 (Ionoptix LLC, Westwood, MA, USA) for at least 5 min, or until arterial diameter stabilized.

[3] = test system: endothelial nitric oxide synthase (eNOS); assay: Uterine artery eNOS immunoblotting / immunofluorescence after in vivo treatment; set-up: species or system rat; conditions: for Total eNOS levels in uterine artery: ethanol and/or PA treatment; for P-Ser1177 eNOS level in uterine artery: ethanol/alcohol-exposed vs control, P<0.05
Protocol: as §1
Immunoblotting was performed using standard laboratory procedures. Following euthanasia, the uterine arteries were isolated by separating the vein, and cleaning the adipose tissues in HBS, before flash freezing for immunoblot analysis. Tissues were first homogenized using a 4° C. cooled bead homogenizer (Benchmark Scientific, Sayreville, NJ, USA) and then quantified using BCA protein quantification assay. Next, 20 μg of the uterine artery sample protein was then loaded on to 4-20% mini-protean TGX gels (Bio-rad, Hercules, CA, USA). Following transfer to a PVDF membrane, P-Ser1177 eNOS (Novus Biologicals, Centennial, CO, USA), total eNOS (BD Biosciences, Franklin Lakes, NJ, USA), and β-Actin (Sigma Aldrich, St. Louis, MI, USA) were probed. Densitometry analysis was performed using AzureSpot (Azure Biosystems, Dublin, CA, USA).
Immunofluorescence assessments were performed using previously published protocols. In brief, maternal uterine arteries were sectioned at 8 μm with a Leica cryostat (CM1860, Leica Biosystems, Buffalo Grove, IL, USA). Sections were subsequently fixed with ice-cold methanol (30 min, −20° C.), and then rinsed in PBS, and incubated in 10% normal serum (60 min). This was followed by incubation with (1:100; p1177-eNOS; Cell Signaling and 1:250; total eNOS, BD Biosciences) primary antibody overnight at 4° C. in a humidified chamber. The sections were then incubated with goat anti-rabbit IgG secondary antibody (Alexa Fluor 488, Invitrogen, Carlsbad, CA, USA), for 1 h at room temperature. Digital images were captured with an Olympus BX63 […] that was equipped with U-HGLGPS fluorescent light source, ORCA-Flash 4.0 LT camera, Hamamatsu Photonics (Hamamatsu, Japan), and Olympus cellSens Dimension software Version 3.2 (Olympus, Tokyo, Japan).

[4] = fetuses from ethanol-fed rats, P<0.05

Compound	Maternal body weights [1]	Maternal body weights ([2]; GD 20-21, control, alcohol, control PA, alcohol PA groups)	Average litter size ([2]; alcohol group)	Mean fetal weights ([2]; alcohol group vs control, p<0.0001)	Crown-rump length lower than pair-fed control [2, 4] [%]	Mean fetal weight lower than pair-fed control [2, 4] [%]	Acetylcholine-induced uterine artery relaxation (vasodilation) (uterine artery)	Acetylcholine-induced uterine artery relaxation (vasodilation) (uterine artery; listed as alcohol)	Total eNOS levels in uterine artery [3]	Total eNOS levels in uterine artery ([3]; listed as alcohol)	P-Ser1177 eNOS level in uterine artery [3]	P-Ser1177 eNOS level in uterine artery ([3]; listed as Alcohol)	P-Ser1177 eNOS level in uterine artery ([3]; listed as Ethanol)
L-α-phosphatidic acid [PA]	did not differ among the treatment groups												
CCO [ethanol]		did not differ among the treatment groups	10.83±1.33	significantly lower	~8	~9	significantly impaired	significantly decreased	Neither ethanol treatment nor PA affected total eNOS levels	Neither alcohol nor PA had any effect on total eNOS	decreases	significantly reduced	significantly reduced

From patent US20240415855A1, “COMPOSITIONS AND METHODS RELATING TO USE OF PHOSPHATIDIC ACID TO RESCUE FETAL ALCOHOL SPECTRUM DISORDER (FASD) GROWTH RESTRICTION AND BLOOD VESSEL CONSTRICTION” (Wayne State University, priority 2023, published 2024)
